Data published in patent US12042539B2, “Compositions and kits for Omeprazole suspension” (Azurity Pharmaceuticals, Inc., priority 2019, dated 2024).
Converted amounts (≈) assume the structure as drawn. Like-named read-outs stand apart in the source and are kept apart here. Values belong to the compound of their own block, whether it stands above or below them.

Columns and labels:
[1] = increase in poloxamer concentration beyond 10 mg/mL; cited from earlier work
[2] = PXRD of reconstituted suspensions (polymorphic form of omeprazole API); format: physicochemical; conditions: 3M and 6M Day 30, 25° C./60% RH and 2-8° C.
Protocol: To evaluate the polymorphic characteristic of omeprazole API during reconstitution stability studies, the reconstituted suspensions were analyzed by X-ray diffraction (XRD) at 3M and 6M time points at 25° C./60% RH and 2-8° C. conditions.

P-glycoprotein = P-glycoprotein (Homo sapiens, UniProt P08183); conditions: cited from earlier work
P-glycoprotein, sequence (P08183 whole entry): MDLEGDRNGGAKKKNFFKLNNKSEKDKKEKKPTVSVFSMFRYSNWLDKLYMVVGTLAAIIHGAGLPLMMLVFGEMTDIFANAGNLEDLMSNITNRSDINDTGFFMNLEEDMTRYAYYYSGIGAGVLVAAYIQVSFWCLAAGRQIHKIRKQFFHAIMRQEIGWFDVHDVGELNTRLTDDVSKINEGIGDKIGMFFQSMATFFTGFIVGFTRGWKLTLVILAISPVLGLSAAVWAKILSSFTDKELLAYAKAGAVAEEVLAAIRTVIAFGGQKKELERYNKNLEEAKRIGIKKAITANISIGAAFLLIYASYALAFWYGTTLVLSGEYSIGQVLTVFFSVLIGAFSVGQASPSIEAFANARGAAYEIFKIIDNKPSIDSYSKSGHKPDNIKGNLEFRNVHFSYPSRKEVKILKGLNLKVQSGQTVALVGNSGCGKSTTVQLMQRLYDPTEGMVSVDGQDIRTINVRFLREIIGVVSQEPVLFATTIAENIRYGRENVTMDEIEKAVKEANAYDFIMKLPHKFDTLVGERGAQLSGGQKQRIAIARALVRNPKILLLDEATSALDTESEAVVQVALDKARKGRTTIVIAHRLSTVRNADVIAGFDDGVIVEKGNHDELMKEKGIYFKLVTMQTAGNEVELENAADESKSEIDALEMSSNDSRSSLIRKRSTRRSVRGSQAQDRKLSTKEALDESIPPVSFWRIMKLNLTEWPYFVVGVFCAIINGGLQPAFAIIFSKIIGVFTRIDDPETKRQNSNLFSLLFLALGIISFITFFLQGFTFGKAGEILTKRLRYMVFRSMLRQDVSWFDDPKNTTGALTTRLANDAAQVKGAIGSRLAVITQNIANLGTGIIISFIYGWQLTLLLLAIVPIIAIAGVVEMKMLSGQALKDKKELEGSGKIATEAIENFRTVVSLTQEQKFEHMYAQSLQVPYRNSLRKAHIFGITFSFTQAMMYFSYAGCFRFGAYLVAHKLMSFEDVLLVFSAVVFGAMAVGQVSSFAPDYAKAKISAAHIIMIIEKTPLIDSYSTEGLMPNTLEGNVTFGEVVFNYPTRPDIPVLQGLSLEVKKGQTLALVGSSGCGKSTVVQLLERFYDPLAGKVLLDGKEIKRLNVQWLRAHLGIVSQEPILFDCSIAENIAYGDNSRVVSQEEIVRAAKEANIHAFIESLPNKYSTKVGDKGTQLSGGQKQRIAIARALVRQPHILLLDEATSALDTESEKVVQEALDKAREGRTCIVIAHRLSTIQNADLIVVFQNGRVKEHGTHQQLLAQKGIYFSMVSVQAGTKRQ

[3] = Phase solubility of omeprazole at different concentrations of poloxamer 188; format: physicochemical; conditions: for solubility: thermodynamic from solid, read-out: Soluble fraction
[4] = cited from earlier work
[5] = cited from earlier work; remark: listed apart in the source
[6] = Related substance (omeprazole impurities) at stability time points; format: physicochemical; conditions: Omeprazole API
Text: Monitoring the trend of increase in chemical impurities/related substances is important with respect to stability of a formulation. Related substance data developed during stability studies of a formulation play a crucial role with respect to determining a useable shelf life for a formulation.
Specification: • a. […] 5-Methoxy-1H-Benzimidazol-2-thiol: NMT 0.50% • c. Omeprazole sulphone N-Oxide: NMT 0.50% • d. Omeprazole N-Oxide: NMT 0.50% • e. Omeprazole Sulphone: NMT 0.50% • f Omeprazole 4-Chloro analog (IMP-H): NMT 0.50% • g. Sulphide (Ufiprazole): NMT 0.50% • h. Desmethoxy Omeprazole: NMT 0.50% • i. Any other individual impurity: NMT 0.20% • j. Total impurities: NMT 2.0%

SMILES: CC(C)(C)NCC(O)COc1cccc2c1CC(O)C(O)C2 (centres unmarked) [nadolol]
Effect of poloxamer on permeability [1]: didn't show a significant effect

Polymorphic form conversion (PXRD) [2]: no polymorphic form conversion
Soluble fraction (%) ([3]; 0 % w/v Poloxamer Content): 10.9%
solubility ([3]; 0% w/v poloxamer 188 (base solvent not stated), 0 % w/v Poloxamer Content): 218 µg/mL (≈ 631 µM)
Soluble fraction (%) ([3]; 0.5 % w/v Poloxamer Content): 15.6%
Soluble fraction (%) ([3]; 1 % w/v Poloxamer Content): 17.1%
Soluble fraction (%) ([3]; 2 % w/v Poloxamer Content): 47.8%
Soluble fraction (%) ([3]; 4 % w/v Poloxamer Content): 47.3%
Omeprazole solubility ([3]; at higher poloxamer 188 content (above 1% w/v)): increased significantly
solubility ([3]; poloxamer 188 at 2% w/v (base solvent not stated), aqueous with cosolvent or surfactant or cyclodextrin, 2 % w/v Poloxamer Content): 957 µg/mL (≈ 2770 µM)
solubility ([3]; poloxamer 188 at 4% w/v (base solvent not stated), aqueous with cosolvent or surfactant or cyclodextrin, 4 % w/v Poloxamer Content): 946 µg/mL (≈ 2740 µM)
solubility ([3]; poloxamer 188 solution (0.5% w/v), aqueous with cosolvent or surfactant or cyclodextrin, 0.5 % w/v Poloxamer Content): 313 µg/mL (≈ 906 µM)
solubility ([3]; poloxamer 188 solution (1% w/v), aqueous with cosolvent or surfactant or cyclodextrin, 1 % w/v Poloxamer Content): 342 µg/mL (≈ 990 µM)
Impact of poloxamer 188 content on omeprazole solubility ([3]; up to 1% w/v poloxamer 188): did not show any significant impact
Related Substance: Omeprazole F&G [6]: 0.031%
Related Substance: Omeprazole sulphone N-Oxide [6]: Not Detected
Related Substance: Total impurities [6]: 0.05%
Related Substance: 5-Methoxy Benzamidazole 2 thiol ([6]; LOQ (0.01%)): Less than LOQ
Related Substance: Desmethoxy Omeprazole ([6]; LOQ (0.01%)): Less than LOQ
Related Substance: Omeprazole 4-Chloro analog (IMP-H) ([6]; LOQ (0.01%)): Less than LOQ
Related Substance: Omeprazole N-Oxide ([6]; LOQ (0.01%)): Less than LOQ
Related Substance: Omeprazole Sulphide ([6]; LOQ (0.01%)): Less than LOQ
Related Substance: Omeprazole Sulphone (IMP-A) ([6]; LOQ (0.01%)): Less than LOQ
SMILES: COc1ccc2[nH]c([S+]([O-])Cc3ncc(C)c(OC)c3C)nc2c1 (centres unmarked) [Omeprazole]
P-gp inhibition effects (P-glycoprotein): does not have P-gp inhibition effects
P-gp substrate (P-glycoprotein): moderate P-gp substrate
Log P [4]: 2.43
solubility ([4]; in water): Very slightly soluble in water
half-life ([5]; in vivo): 30 to 60 min
Peak Plasma concentration, time to achieve ([5]; marketed formulations of omeprazole): very rapidly
